Results taken from ChEMBL document CHEMBL3885861, “Open TG-GATES”.

Organism: Rattus norvegicus
Assay: Open TG-GATES - Regimen: Single
Format: toxicity, organism-based, Sprague-Dawley
Parameters: regimen Single, gender Male, age 6 weeks
Settings: in vivo, po, 100 mg/kg, route gavage, dose level Low; for APTT / Bas / Eos / Fbg / Hb / Ht / Lym / MCH / MCHC / MCV / Mono / Neu / PT / Plat / RBC / Ret / WBC: tissue Blood; for KIDNEY_L / KIDNEY_R / KIDNEY_TOTAL: tissue Kidney; for LIVER: tissue Liver; for A/G / ALP / ALT / AST / BUN / CRE / Ca / Cl / DBIL / GLC / IP / K / LDH / Na / PL / RALB / TBIL / TC / TG / TP / gamma-GTP: tissue Plasma

## C[C@H]1O[C@H](O[C@H]2[C@H](O)[C@@H](O)[C@@H](O[C@H]3[C@H](O)[C@@H](O)C(O)O[C@@H]3CO)O[C@@H]2CO)[C@H](O)[C@@H](O)[C@@H]1N[C@H]1C=C(CO)[C@@H](O)[C@H](O)[C@H]1O (some centres not stated) [ACARBOSE]
3 h
  TERMINAL_BW: 197.7 g
  APTT: 16.7 s
  Bas: 0.2%
  Eos: 0.8%
  Fbg: 274.6 mg/dL
  Hb: 13.5 g/dL
  Ht: 41.3%
  Lym: 78.4%
  MCH: 21.1 pg
  MCHC: 32.6%
  MCV: 64.8 fL
  Mono: 2%
  Neu: 17.8%
  PT: 13.6 s
  Plat: 118.3 x10_4/uL
  RBC: 639 x10_4/ul
  Ret: 8.2%
  WBC: 89.6 x10_2/uL
  KIDNEY_L: 0.9 g
  KIDNEY_R: 0.9 g
  KIDNEY_TOTAL: 1.8 g
  LIVER: 8.5 g
  A/G: 0.9
  ALP: 1409.6 IU/L
  ALT: 39.2 IU/L
  AST: 77.6 IU/L
  BUN: 10.4 mg/dL
  CRE: 0.2 mg/dL
  Ca: 10.7 mg/dL
  Cl: 104.6 meq/L
  DBIL: 0.004 mg/dL
  GLC: 172.2 mg/dL
  IP: 9.9 mg/dL
  K: 3.8 meq/L
  LDH: 60 IU/L
  Na: 141.2 meq/L
  PL: 136.4 mg/dL
  RALB: 2.5 g/dL
  TBIL: 0.062 mg/dL
  TC: 75.4 mg/dL
  TG: 39.2 mg/dL
  TP: 5.1 g/dL
  gamma-GTP: 1 IU/L
6 h
  TERMINAL_BW: 198.1 g
  APTT: 16 s
  Bas: 0%
  Eos: 1%
  Fbg: 307.2 mg/dL
  Hb: 13.4 g/dL
  Ht: 41.5%
  Lym: 78.2%
  MCH: 21 pg
  MCHC: 32.3%
  MCV: 65.1 fL
  Mono: 2.2%
  Neu: 17.8%
  PT: 13.3 s
  Plat: 117.7 x10_4/uL
  RBC: 636.8 x10_4/ul
  Ret: 8.8%
  WBC: 81.3 x10_2/uL
  KIDNEY_L: 0.9 g
  KIDNEY_R: 0.9 g
  KIDNEY_TOTAL: 1.9 g
  LIVER: 8.3 g
  A/G: 0.9
  ALP: 1322 IU/L
  ALT: 34.6 IU/L
  AST: 67.8 IU/L
  BUN: 8.4 mg/dL
  CRE: 0.2 mg/dL
  Ca: 10.8 mg/dL
  Cl: 104.2 meq/L
  DBIL: 0.002 mg/dL
  GLC: 168.2 mg/dL
  IP: 10.2 mg/dL
  K: 3.8 meq/L
  LDH: 58.4 IU/L
  Na: 141 meq/L
  PL: 133.8 mg/dL
  RALB: 2.5 g/dL
  TBIL: 0.062 mg/dL
  TC: 77.2 mg/dL
  TG: 31 mg/dL
  TP: 5.2 g/dL
  gamma-GTP: 1 IU/L
9 h
  TERMINAL_BW: 195.5 g
  APTT: 16.9 s
  Bas: 0%
  Eos: 0.8%
  Fbg: 303.8 mg/dL
  Hb: 13 g/dL
  Ht: 40.5%
  Lym: 77.4%
  MCH: 20.6 pg
  MCHC: 32.2%
  MCV: 63.9 fL
  Mono: 2.6%
  Neu: 18.4%
  PT: 13.4 s
  Plat: 124.4 x10_4/uL
  RBC: 634.4 x10_4/ul
  Ret: 8.3%
  WBC: 71.6 x10_2/uL
  KIDNEY_L: 0.9 g
  KIDNEY_R: 0.9 g
  KIDNEY_TOTAL: 1.8 g
  LIVER: 7.9 g
  A/G: 0.9
  ALP: 1274 IU/L
  ALT: 35.8 IU/L
  AST: 68.4 IU/L
  BUN: 8 mg/dL
  CRE: 0.2 mg/dL
  Ca: 10.6 mg/dL
  Cl: 105 meq/L
  DBIL: 0 mg/dL
  GLC: 178.2 mg/dL
  IP: 10 mg/dL
  K: 3.9 meq/L
  LDH: 64.2 IU/L
  Na: 141.6 meq/L
  PL: 150.4 mg/dL
  RALB: 2.5 g/dL
  TBIL: 0.058 mg/dL
  TC: 85.4 mg/dL
  TG: 61.6 mg/dL
  TP: 5.3 g/dL
  gamma-GTP: 1 IU/L
24 h
  TERMINAL_BW: 213.3 g
  APTT: 17.6 s
  Bas: 0%
  Eos: 1%
  Fbg: 286.2 mg/dL
  Hb: 13.4 g/dL
  Ht: 41%
  Lym: 76.4%
  MCH: 20.9 pg
  MCHC: 32.7%
  MCV: 63.9 fL
  Mono: 2.6%
  Neu: 19.2%
  PT: 13 s
  Plat: 114.1 x10_4/uL
  RBC: 641.4 x10_4/ul
  Ret: 7.9%
  WBC: 97.3 x10_2/uL
  KIDNEY_L: 0.9 g
  KIDNEY_R: 0.9 g
  KIDNEY_TOTAL: 1.9 g
  LIVER: 10.2 g
  A/G: 0.9
  ALP: 1382.4 IU/L
  ALT: 44.6 IU/L
  AST: 74 IU/L
  BUN: 14.4 mg/dL
  CRE: 0.2 mg/dL
  Ca: 10.9 mg/dL
  Cl: 105.4 meq/L
  DBIL: 0.008 mg/dL
  GLC: 170.8 mg/dL
  IP: 8.3 mg/dL
  K: 4.1 meq/L
  LDH: 57.8 IU/L
  Na: 142.6 meq/L
  PL: 140.8 mg/dL
  RALB: 2.6 g/dL
  TBIL: 0.056 mg/dL
  TC: 72.6 mg/dL
  TG: 76.2 mg/dL
  TP: 5.5 g/dL
  gamma-GTP: 1 IU/L
